What was measured:
[1] = ROS selectivity test, LC/MS; details: 200 μM BBCP, 2 mM OCl^−, PBS pH 7.4, LC/MS
Experimental: (§1) Selectivity for the BBCP probe was measured by analytical high performance liquid chromatography (HPLC) using Agilent 1200 Series HPLC System equipped with a multi-wavelength detector and an Agilent Zorbax SB-C18 Column (3.5 μm particle size, 3.0×150 mm). Concentrations of 4-cyanopyridine was calculated using integrated peak intensities at 280 nm using a calibration curve. All reactions were tested with 200 μM BBCP and 2 mM ROS/RNS (10 equiv) in PBS (pH 7.4). At a given time point, the reaction was quenched with 10 μL 1 M ascorbic acid (10 mM) and analyzed by LCMS. The ROS and RNS were generated as follows:
OCl^−: Commercial bleach (8.25% NaOCl) was diluted to 500 mM. 4 μL of 500 mM NaOCl (for a final concentration of 2 mM) was added to 200 μM of BBCP.

[2] = tested on: HeLa cells; assay: Cytotoxicity analysis using WST-8 assay (CCK-8); type: cell-based; details: concentrations up to 10 mM, 6 h of treatment
Experimental: WST cytotoxicity assay was performed using Cell Counting Kit-8 (CCK-8) according to the procedure as follows. HeLa cells were seeded in a 96-well plate at a concentration of 5000 cells/well in DMEM medium (high glucose) supplemented with 10% FBS and 1% sodium pyruvate. The cell cultures were incubated for 24 h in a humidified atmosphere of 5% CO2 at 37° C. After the incubation period, 10 μL of 5, 10, 50, 100 mM stock solutions of BBCP dissolved in PBS buffer (pH 7.4) were added to each well so the final concentration is 0.5, 1, 5, 10 mM, respectively. PBS and sodium dodecyl sulfate (SDS) (1 mM) were used as negative and positive controls, respectively. The treated 96-well plates were incubated for 6 and 24 h in a humidified atmosphere of 5% CO2 at 37° C. After appropriate incubation time, the CCK-8 solution (10 μL) was added to each well and further incubated for 2 h for color development. The absorbance at 450 nm from each well was measured by using a microplate reader (Synergy™ H1, BioTek). The background absorbance of BBCP corrected.

[3] = UV/Vis kinetics measurement; details: 25° C., PBS pH 7.4, 50 μM BBCP, 5 mM H2O2 (100 equiv)
Experimental: The pseudo-first order rate constant was calculated by monitoring the BBCP consumption with UV/Vis spectroscopy over time in the presence of excess H2O2. A solution of BBCP (50 μM) oxidation was initiated by the addition of freshly prepared H2O2 (5 mM, 100 equiv) in PBS (pH 7.4) at 25° C. Reactions were monitored as Abs310 change and scanned every 30 s for 20 minutes. The apparent k1 value was determined by the initial rate of reaction (0-50 s) as (3.4±0.15)×10^−3 min^−1. The experiment was repeated in triplicate to give a k2 value of 12.6±0.52 M^−1 min^−1 (0.21±0.0087 M^−1 s^−1).

[4] = ROS/RNS/reactive sulfur selectivity test, LC/MS; details: 200 μM probe, 2 mM reactive species, PBS pH 7.4, LC/MS (FIG. 1B)
Experimental: as §1, with “LCMS.” for “LCMS. The ROS and RNS were generated as follows:”

[5] = In vivo reaction-based detection of H2O2 with hyperpolarized 15N-BBCP; details: rat
Experimental: Finally, the ability of ^15N-BBCP to image H2O2 in vivo using clinical 3 T MRI was assessed.
Finally, the feasibility of ^15N-BBCP to detect H2O2 in vivo was investigated in a rat model at the clinical 3 T MRI. […] Despite the small chemical shift difference, the accumulation of ^15N-HBCP production was clearly observed in the later time points.

[6] = ROS selectivity test, LC/MS conversion to 4-cyanopyridine; details: 200 μM BBCP, 2 mM H2O2 (10 equiv), PBS pH 7.4, 5-30 min, room temperature
Experimental: as §1
H2O2: A 30% H2O2 in H2O solution was diluted to a 500 mM stock solution. 4 μL of 500 mM H2O2 (2 mM) was added to a 200 μM of BBCP in PBS.

[7] = ROS/RNS selectivity test, LC/MS; details: 200 μM BBCP, 2 mM ONOO^−, PBS pH 7.4, LC/MS
Experimental: as §1
ONOO^−: To a solution of aqueous NaOH (0.5 M, 2.5 mL) and iPrOH (2.5 mL) was added H2O2 (30% in H2O, 0.12 mL, 1.2 mmol, 1.2 equiv), followed by isoamyl nitrite (0.135 mL, 1.0 mmol, […]). The reaction was stirred at room temperature for 20 mins and washed with CH2Cl2 (10 mL×2). […] The solution was then filtered and stored in −20° C. until use. The concentration of the stock solution was calculated to be 14.3 mM using absorbance at 302 nm (e=1670 M^−1).

[8] = Stability in PBS and DMEM media (LCMS)
[9] = injection of exogenous H2O2, 3 T 15N-MRS (Example 3)

With “1-(4-boronobenzyl)-4-(cyano)pyridin-1-ium [^15N-BBCP]” the reactivity with hypochlorite [1] was “moderate reactivity”, the cell viability [2] was greater than 90% and the “apparent k1 (pseudo-first order rate constant), initial rate 0-50 s” value [3] was “(3.4±0.15)×10^−3 min^−1”. The reactivity toward hydrogensulfite [4] was “showed reactivity”, the “15N-CP (fragmentation product) signal in vivo” value [5, 9] was “^15N-CP was not observed” and the “15N-HBCP (oxidation product) signal in vivo” value [5, 9] was “^15N-HBCP peak was detectable”. For the same substance, the “15N-CP (fragmentation product) signal in vivo” value ([5]; intravenous bolus 40-mM after intraperitoneal H2O2, 3 T) was “^15N-CP was not observed”, the “15N-HBCP (oxidation product) signal in vivo” value ([5]; intravenous bolus 40-mM after intraperitoneal H2O2, slab with liver and kidneys, 3 T) was “both ^15N-BBCP and ^15N-HBCP peaks appeared” and the “conversion to 4-cyanopyridine on reaction with H2O2” value [6] was “significant conversion to 4-cyanopyridine”. For the same substance, the reactivity with peroxynitrite [7] was “moderate reactivity”, the “LCMS absorbance peak area of the probe in PBS” value (shortened to “LCMS absorbance peak area”) ([8]; 0 hours) was 566.6 and the “time stable in PBS and DMEM media” value ([8]; 200 μM probe, pH 7.4, room temp, LCMS) was “over 26 h”. The “LCMS absorbance peak area” value ([8]; 2 hours) was 565.6, the “LCMS absorbance peak area” value ([8]; 26 hours) was 564.9 and the “stability in physiological buffer solution (in words)” value ([8]; PBS, pH 7.4, 200 μM, 0, 2 and 24 h (FIG. 4)) was “only showing hydrolysis of boronic ester to boronic acid”.

From patent US12377173B2, “Compositions comprising hyperpolarized probes for H2O2 sensing and methods of using same” (Duke University, priority 2021, dated 2025)
